Assay results taken from patent US10512635B2, “Uses of benzimidazole derivative for nocturnal acid breakthrough” (CJ HEALTHCARE CORPORATION, priority 2015, dated 2019).
Several values for one entry are separate records, joined by “and”; a condition that tells them apart may be missing. Equal entries are not always repeated.

Test system: gastric pH
Experiment: Clinical trial: 24 h gastric pH monitoring after single night-time oral dose
Format: in vivo, human (healthy male volunteers)
Details: for % inhibition of IA / % inhibition of Time pH < 4: post-dose vs baseline; for % inhibition of IA / % inhibition of Time pH < 4 / IA (integrated acidity) / Median pH / Time pH > 4 (%) / Time pH > 6 (%): mean N=12; for IA (integrated acidity) / Median pH / Time pH > 4 (%) / Time pH > 6 (%): post-dose
Procedure: In order to evaluate the nocturnal acid breakthrough inhibiting effect of the compound of Chemical Formula 1 according to the present disclosure, clinical trials were designed by Randomized, Open-label, Single-dose, Balanced incomplete block crossover. A total of 24 trial subjects were enrolled for 12 sequences, with two trial subjects assigned per a sequence. All the trial subjects have completed the planned clinical trial schedule (FIG. 1 and Table 1).
Trial drugs were administered between P.M. 08:30 and P.M 10:30 together with 200 mL of water in a state where water intake was restricted 1 hour before the administration of the trial drugs. Investigator has instructed the trial subjects to take the trial drugs, and has observed the oral cavities of the trial subjects whether all the trial drugs were well taken. The trial subjects were restricted not to lie down for 3 hours after the administration of the trial drugs, but were not restricted when they must lie down or be semi-reclined during a clinical test procedure (for example, electrocardiogram examination). The trial subjects were to take a proper posture if any abnormal reaction occurs at any point.
The trial subjects were allowed to take a small amount of water (150 mL or less) in order to insert a pH sensor easily. The intake of drinking water and food was prohibited for 4 hours after the insertion of a pH sensor, and, particularly, the intake of water was restricted for 4 hours after the administration of the trial drugs (On the day before the administration (−1 D), for 4 hours after estimated drug administration time). After the trial subjects woke up next day, a small amount of water (about 50 mL) was provided to the trial subjects at 2 hour intervals during 12 to 24 hours after the administration of the trial drugs (On the day before the administration (−1 D), during 12 to 24 hours after estimated drug administration time), and the intake of water was not restricted during meal time. Meanwhile, standard meal was provided in the form of liquid meal or semi-liquid, and dinner was finished at least 3 hours before drug administration time (On the day before the administration (−1 D), estimated drug administration time). After dinner, an empty stomach state was maintained until breakfast next morning.
Specifically, for the analysis of […] parameters, the changes of average 15-min median gastric pH over time were monitored. The main […] parameters set forth above were calculated using the data of total 24 persons obtained by the monitoring of gastric pH. The time function of […] parameters was schematically was illustrated to calculate the […] parameters, and these […] parameters were summarized using descriptive statistics (arithmetic mean (mean), standard deviation (SD), coefficient of variation (CV (%)), sample size (N), minimum value (min), maximum value (max), and median value (median)).
Meanwhile, the monitoring of gastric pH was carried out as fellows. • Period 1: for each examination period, 24 h for −1 D (before administration), 24 h for each of 1 D and 7 D (after administration) • Period 2: 24 h for 1 D (after administration)

[1] = Compound I 50 mg (Example 1), 24 hours
[2] = Compound I 50 mg (Example 1), day-time (12-24 hours)
[3] = Compound I 50 mg (Example 1), night-time (0-12 hours)
[4] = Compound I 100 mg (Example 2), 24 hours
[5] = Compound I 100 mg (Example 2), day-time (12-24 hours)
[6] = Compound I 100 mg (Example 2), night-time (0-12 hours)
[7] = Compound I 200 mg (two formulations of Example 2), 24 hours
[8] = Compound I 200 mg (two formulations of Example 2), day-time (12-24 hours)
[9] = Compound I 200 mg (two formulations of Example 2), night-time (0-12 hours)
[10] = dexlansoprazole 60 mg (Comparative Example), 24 hours
[11] = dexlansoprazole 60 mg (Comparative Example), day-time (12-24 hours)
[12] = dexlansoprazole 60 mg (Comparative Example), night-time (0-12 hours)

## Cc1nc2c(OC3CCOc4cc(F)cc(F)c43)cc(C(=O)N(C)C)cc2[nH]1 (centres unmarked) [Compound I, 4-(5,7-difluorochroman-4-yloxy)-N,N,2-trimethyl-1H-benzo[d]imidazole-6-carboxamide]
[1]
  % inhibition of IA: 78.18%
  % inhibition of Time pH < 4: 51.35%
  IA (integrated acidity): 355.02 mmol·h/L
  Median pH: 4.57
  Time pH > 4 (%): 58.55%
  Time pH > 6 (%): 25.97%
[2]
  % inhibition of IA: 62.64%
  % inhibition of Time pH < 4: 39.65%
  IA (integrated acidity): 184.29 mmol·h/L
  Median pH: 4.08
  Time pH > 4 (%): 52.06%
  Time pH > 6 (%): 21.56%
[3]
  % inhibition of IA: 83.98%
  % inhibition of Time pH < 4: 61.41%
  IA (integrated acidity): 170.73 mmol·h/L
  Median pH: 4.98
  Time pH > 4 (%): 65.11%
  Time pH > 6 (%): 30.41%
[4]
  % inhibition of IA: 88.78%
  % inhibition of Time pH < 4: 66.22%
  IA (integrated acidity): 229.60 mmol·h/L
  Median pH: 5.10
  Time pH > 4 (%): 70.07%
  Time pH > 6 (%): 31.91%
[5]
  % inhibition of IA: 90.74%
  % inhibition of Time pH < 4: 71.47%
  IA (integrated acidity): 67.72 mmol·h/L
  Median pH: 5.10
  Time pH > 4 (%): 74.57%
  Time pH > 6 (%): 30.10%
[6]
  % inhibition of IA: 88.68%
  % inhibition of Time pH < 4: 62.53%
  IA (integrated acidity): 161.88 mmol·h/L
  Median pH: 5.01
  Time pH > 4 (%): 65.61%
  Time pH > 6 (%): 33.85%
[7]
  % inhibition of IA: 93.45%
  % inhibition of Time pH < 4: 78.87%
  IA (integrated acidity): 141.62 mmol·h/L
  Median pH: 5.90
  Time pH > 4 (%): 81.73%
  Time pH > 6 (%): 48.44%
[8]
  % inhibition of IA: 97.41%
  % inhibition of Time pH < 4: 82.48%
  IA (integrated acidity): 25.51 mmol·h/L
  Median pH: 5.62
  Time pH > 4 (%): 85.34%
  Time pH > 6 (%): 43.29%
[9]
  % inhibition of IA: 91.17%
  % inhibition of Time pH < 4: 76.00%
  IA (integrated acidity): 116.11 mmol·h/L
  Median pH: 6.00
  Time pH > 4 (%): 78.15%
  Time pH > 6 (%): 53.63%
Compound I 200 mg (two formulations of Example 2), night-time (0-12 hours), listed as compound of Chemical Formula 1
  Time pH > 4 (%): 73.15%
All dose groups (50 mg, 100 mg, and 200 mg), administered at night-time
  time after administration until average gastric pH reached 4 or higher: ≤ 2 hours

## Cc1c(OCC(F)(F)F)ccnc1C[S@@+]([O-])c1nc2ccccc2[nH]1 [dexlansoprazole, reference compound]
[10]
  % inhibition of IA: 64.66%
  % inhibition of Time pH < 4: 53.96%
  IA (integrated acidity): 719.54 mmol·h/L
  Median pH: 4.98
  Time pH > 4 (%): 60.55%
  Time pH > 6 (%): 25.85%
[11]
  % inhibition of IA: 97.01%
  % inhibition of Time pH < 4: 79.80%
  IA (integrated acidity): 22.89 mmol·h/L
  Median pH: 5.56
  Time pH > 4 (%): 83.05% and 83.06%
  Time pH > 6 (%): 33.71%
[12]
  % inhibition of IA: 44.06%
  % inhibition of Time pH < 4: 29.98%
  IA (integrated acidity): 696.55 mmol·h/L
  Median pH: 2.55
  Time pH > 4 (%): 37.78%
  Time pH > 6 (%): 17.76%
